# Experimental data: publication PMC7943729, “Cell-Free DNA Promotes Thrombin Autolysis and Generation of Thrombin-Derived C-Terminal Fragments” (Frontiers in Immunology, 2021)
# Legend:
# [1] = molecular target: T1, human thrombin (Homo sapiens, UniProt P00734); assay: Thrombin autolysis determination by western blot; assay type: biochemical
# T1 construct: purchased Innovative Research USA
# Method: 10 µl of citrate plasma was added to increasing concentration of DNA (6.25, 12.5, 25, and 50 µg/ml) resuspended in 10 mM Tris, pH 7.4 (total volume of 20 µl). Following an hour pre-incubation at 37 °C, 2.5 mM CaCl2 was added to samples and further incubated for 1 hour at 37 °C. After incubation, samples were boiled for 15 min with sample buffer and were analyzed by SDS-PAGE using Novex 10–20% Tris Tricine precast gels. Post electrophoresis, the gel was transferred to a PVDF membrane and blocked with 5% milk for an hour before western blotting. For detection of C-terminal thrombin fragments, overnight incubation of the blots was performed with polyclonal antibodies recognizing the thrombin C-terminal peptide VFR17 ([…]) in 1:5,000 dilution at 4 °C. […]
# DNA dependent thrombin autolysis was analyzed by incubating 0.4 µg of human thrombin (Innovative Research USA) in the presence or absence of equal weight ratio (1:1) of DNA in a total volume of 10 µl for different time points (1, 2, 4, and 6 h). […] Thrombin autolysis inhibition was analyzed using 0.4 µg of heat inactivated thrombin (preboiled for 10 mins at 95 °C) incubated with equal weight ratio (1:1) of DNA for extended time of 6 h. […] In all cases, after the incubation at 37 °C, samples were boiled for 10 min in sample buffer and analyzed by western blotting as mentioned above.
# [2] = molecular target: T2, human neutrophil elastase (Homo sapiens, UniProt P08246); assay: Protease protection assay; assay type: in vitro ADME; conditions: NE 1:30, 37 °C, western blot
# T2 sequence (P08246 30-267): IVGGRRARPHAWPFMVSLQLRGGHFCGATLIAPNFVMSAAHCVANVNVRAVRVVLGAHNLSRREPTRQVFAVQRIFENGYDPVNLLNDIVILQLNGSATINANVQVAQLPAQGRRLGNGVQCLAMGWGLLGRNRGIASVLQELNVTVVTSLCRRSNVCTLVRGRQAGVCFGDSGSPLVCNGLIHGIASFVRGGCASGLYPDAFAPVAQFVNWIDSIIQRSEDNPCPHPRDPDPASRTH
# Method: Thrombin or GKY25 (0.4 µg) was incubated with DNA (w/w ratio = 1:1) in 10 mM Tris, pH 7.4 for 4 h, followed by addition of neutrophil elastase at enzyme: substrate ratio of 1:30 and incubated for various time points (1, 2, and 3 h). Post incubation, samples were boiled for 3 min to inhibit the reaction and further analyzed by Tricine SDS-PAGE as described above.
# [3] = molecular target: T1, human thrombin; conditions: thrombin autolysis without DNA; cited from earlier work
# Source text: Previous studies have shown that the rate of autolysis increases with concentration of thrombin, pH, temperature and concentration of monovalent cations ([31], [32]).
# [4] = system: genomic DNA; assay: DNA gel shift assay (agarose gel mobility shift); assay type: binding, human; conditions: 200 ng gDNA (20 µg/ml), 10-200 ng protein or peptide, 10 mM Tris pH 7.4, 1 h 37 °C, 0.8% agarose gel, SYBR Safe; n = 3
# Method: The DNA used for agarose gel and western blot analysis was extracted from cultured human keratinocytes (HaCaT) cells using E.Z.N.A. DNA/RNA Isolation kit (Omega Bio-Tek USA) or E. coli DH5α plasmid DNA (pUC19) using Qiagen plasmid purification kits (Qiagen USA) according to the manufacturer’s protocol.
# Following this, the samples were analyzed by gel electrophoresis on a 0.8% agarose (w/v) gel in 1X Tris acetate-EDTA (TAE) buffer with SYBR Safe and visualized with the ChemiDoc Imaging System (Bio-Rad, USA).
compound,measurement,setting,value
O=S(=O)(F)Cc1ccccc1 [PMSF],inhibition of DNA-induced TCP formation,"[1]; 0.4 µg thrombin, DNA 1:1 w/w, 4 h 37 °C, PMSF 1 mM, protease inhibitor cocktail 1X",abrogated the formation of TCPs
heparin,induction of thrombin fragmentation / TCP formation,"[1]; 0.4 µg human thrombin, 37 °C, western blot with anti-VFR17, DNA 1:1 for 1-6 h, NETs 4 h, heparin 1:0.5 and 1:1 for 1 h",did not induce thrombin fragmentation or TCP formation
thrombin,thrombin fragments after neutrophil elastase in the presence of DNA,"[2]; 0.4 µg thrombin with gDNA 1:1 w/w, increasing incubation time 60-180 min",a higher signal intensity of the 3 kDa TCP
same,cleavage of thrombin by neutrophil elastase without DNA,"[2]; 0.4 µg thrombin, control lanes without DNA, 60-180 min",cleaved thrombin to release multiple TCPs
same,time for complete autolytic conversion to γ-thrombin,[3],~144 h
same,amount giving complete retardation of DNA,[4],≥ 160 ng
same,amount giving reduced DNA migration,[4],40 ng
